Results on five compounds are retold here after patent US7745636B2, “Hepatitis C virus inhibitors” (Bristol-Myers Squibb Company, priority 2006, dated 2010).

SMILES strings stand for the structures. Read-outs that look alike come from different tables or passages of the source.

The subject of this experiment is HCV 1b-377-neo replicon cells. Description: HCV Replicon assay, HCV 1b-377-neo replicon cells. In kind it is cell-based, HCV 1b genotype. The note with it: Table 2, read-out: Range (EC50 against HCV 1b).

For `CC(C)[C@H](NC(=O)OCCF)C(=O)O` [OL-4], the EC50 lay within 0.001 to 0.999 nM.
As for `CCC(CC)[C@H](NC(=O)OC)C(=O)O` [OL-5], the EC50 lay within 0.001 to 0.999 nM.
As to `COC(=O)N[C@H](C(=O)N1CCC[C@H]1c1ncc(-c2ccc(-c3ccc(-c4cnc([C@@H]5CCCN5C(=O)[C@@H](Nc5ncccn5)C(C)C)[nH]4)cc3)cc2)[nH]1)C(C)C` [cj-11, methyl ((1S)-2-methyl-1-(((2S)-2-(5-(4′-(2-((2S)-1-(N-2-pyrimidinyl-L-valyl)-2-pyrrolidinyl)-1H-imidazol-5-yl)-4-biphenylyl)-1H-imidazol-2-yl)-1-pyrrolidinyl)carbonyl)propyl)carbamate], under “Hepatitis C virus”, the EC50 lay in the range of 0.001 to 0.999 nM.
With `COC(=O)N[C@H](C(=O)N1CCC[C@H]1c1ncc(-c2ccc(-c3ccc(-c4cnc([C@@H]5CCCN5C(=O)[C@@H](Nc5noc(N)n5)C(C)C)[nH]4)cc3)cc2)[nH]1)C(C)C` [cj-16, methyl((1S)-1-(((2S)-2-(5-(4′-(2-((2S)-1-(N-(5-amino-1,2,4-oxadiazol-3-yl)-L-valyl)-2-pyrrolidinyl)-1H-imidazol-5-yl)-4-biphenylyl)-1H-imidazol-2-yl)-1-pyrrolidinyl)carbonyl)-2-methylpropyl)carbamate], where the note is “Hepatitis C virus”, the EC50 lay in the range of 0.001 to 0.999 nM.
For `COC(=O)N[C@H](C(=O)N1CCC[C@H]1c1ncc(-c2ccc(-c3ccc(-c4cnc([C@@H]5CCCN5C(=O)[C@@H](NC(=NC#N)N(C)C)C(C)C)[nH]4)cc3)cc2)[nH]1)C(C)C` [cj-17, methyl ((1S)-1-(((2S)-2-(5-(4′-(2-((2S)-1-(N-(cyano(dimethyl)carbamimidoyl)-L-valyl)-2-pyrrolidinyl)-1H-imidazol-5-yl)-4-biphenylyl)-1H-imidazol-2-yl)-1-pyrrolidinyl)carbonyl)-2-methylpropyl)carbamate], the EC50 (Hepatitis C virus) lay within 0.001 to 0.999 nM.

As a reminder, the EC50 is the concentration giving half of the maximal effect.
